Some test systems named below: NCI-H226 lung; OVCAR-4 ovarian; CCRF-CEM leukemia; SK-MEL-2 melanoma; KM12 colon; M14 melanoma; NCI-H460 lung; UACC-62 melanoma; NCI/ADR-RES ovarian; NCI-H522 lung.
What all share (assay): growth of human tumour cells (NCI), 48 h

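Interpolation was linear, between the two tested concentrations surrounding the appropriate level; five concentrations were tested over 48 hours in 96-well plates. TGI is the concentration that stops growth completely.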 Some results are limits rather than exact numbers.

As for `COC(=O)c1c(C#C[Si](C)(C)C)c(C#C[Si](C)(C)C)c(C#C[Si](C)(C)C)c(C#C[Si](C)(C)C)c1C(=O)OC`, the TGI in the assay on NCI-H226 lung, in the assay with OVCAR-4 ovarian, in the assay on CCRF-CEM leukemia, in the assay on SK-MEL-2 melanoma, with KM12 colon and in the assay on M14 melanoma was above 100 µM throughout. Besides, the TGI in the assay on NCI-H460 lung, in the assay on UACC-62 melanoma, in the assay with NCI/ADR-RES ovarian and in the assay with NCI-H522 lung was above 100 µM throughout.

As to `O=C(NCCCCNCCCNC(=O)OCc1ccccc1)OCc1ccccc1`, the TGI in the assay with NCI-H226 lung is above 100 µM; in the assay with OVCAR-4 ovarian, above 100 µM; in the assay on CCRF-CEM leukemia it was 82.1 µM; in the assay on SK-MEL-2 melanoma, 59.8 µM; in the assay with KM12 colon, 98.5 µM; with M14 melanoma, 40.1 µM. The TGI in the assay with NCI-H460 lung is 69 µM; with UACC-62 melanoma, 37.1 µM; in the assay on NCI/ADR-RES ovarian, above 100 µM; in the assay with NCI-H522 lung, 39.2 µM.

Consider `COc1ccccc1N1C(=O)/C(=C\c2cccc(Oc3ccccc3)c2)S(=O)(=O)C1c1ccccc1` (stereo not given), for which the TGI is above 100 µM in the assay with NCI-H226 lung; above 100 µM in the assay on OVCAR-4 ovarian; above 100 µM with CCRF-CEM leukemia; 70.5 µM in the assay with SK-MEL-2 melanoma; above 100 µM with KM12 colon; above 100 µM in the assay with M14 melanoma. Further, the TGI in the assay on NCI-H460 lung was above 100 µM; with UACC-62 melanoma, above 100 µM; in the assay with NCI/ADR-RES ovarian, 67.6 µM; in the assay with NCI-H522 lung, above 100 µM.

For the compound `CC1(C)O[C@@H](CP(c2cccc3ccccc23)c2cccc3ccccc23)[C@H](CP(c2cccc3ccccc23)c2cccc3ccccc23)O1`, the TGI in the assay with NCI-H226 lung, in the assay on OVCAR-4 ovarian, in the assay on CCRF-CEM leukemia, in the assay with SK-MEL-2 melanoma, with KM12 colon and in the assay with M14 melanoma was above 100 µM each time. The TGI in the assay on NCI-H460 lung, with UACC-62 melanoma, with NCI/ADR-RES ovarian and in the assay on NCI-H522 lung was above 100 µM each time.

`COC(=O)[C@@H]1O[C@]12[C@@H](CO[Si](C)(C)C(C)(C)C)O[C@@H](n1cc(C)c(=O)[nH]c1=O)[C@@H]2O[Si](C)(C)C(C)(C)C`: the TGI with NCI-H226 lung was 45.5 µM; in the assay on OVCAR-4 ovarian, above 100 µM; in the assay on CCRF-CEM leukemia, 4.79 µM; in the assay on SK-MEL-2 melanoma, 30.1 µM; in the assay on KM12 colon it was above 100 µM; in the assay with M14 melanoma it was 35.9 µM. Besides, the TGI in the assay on NCI-H460 lung is above 100 µM; in the assay with UACC-62 melanoma, 34.8 µM; in the assay on NCI/ADR-RES ovarian, 33.8 µM; in the assay with NCI-H522 lung, 30.1 µM.

`CC(C)CC(NC(=O)C(COc1ccc([N+](=O)[O-])cc1)Cc1ccccc1)C(=O)Nc1ccccc1` (stereo not given): the TGI in the assay on NCI-H226 lung is 16.1 µM; in the assay on OVCAR-4 ovarian it was 8.33 µM; in the assay with CCRF-CEM leukemia, above 100 µM; in the assay on SK-MEL-2 melanoma, 74.1 µM; in the assay on KM12 colon, 21.5 µM; with M14 melanoma, 60.8 µM. The TGI in the assay with NCI-H460 lung was determined as 13.2 µM; in the assay on UACC-62 melanoma it was 30.9 µM; with NCI/ADR-RES ovarian it was 43.3 µM; in the assay on NCI-H522 lung it was 55.2 µM.

Turning to `CC1(C)CC(=O)C(=CN2C(=O)CNC2=S)C(=O)C1`, the TGI with NCI-H226 lung, with OVCAR-4 ovarian, with CCRF-CEM leukemia, in the assay on SK-MEL-2 melanoma, with KM12 colon and in the assay on M14 melanoma was above 100 µM in each case. Further, the TGI in the assay with NCI-H460 lung, in the assay with UACC-62 melanoma, in the assay with NCI/ADR-RES ovarian and in the assay on NCI-H522 lung was above 100 µM each time.

Consider `Nc1ccc(-c2nc3ccccc3s2)cc1`, for which the TGI in the assay on NCI-H226 lung came out at 49 µM; with OVCAR-4 ovarian, 35.6 µM; in the assay on CCRF-CEM leukemia it was 54.4 µM; with SK-MEL-2 melanoma, 64.2 µM; with KM12 colon it was 47.6 µM; with M14 melanoma it was 34 µM. In addition, the TGI in the assay on NCI-H460 lung was found to be 43.1 µM; in the assay on UACC-62 melanoma, 38.6 µM; in the assay on NCI/ADR-RES ovarian, 56.4 µM; with NCI-H522 lung, 40.1 µM.

Values taken from PubChem BioAssay (NCI).
